Source: ChEMBL document CHEMBL3046822, “Synthesis, antiplatelet aggregation activity, and molecular modeling study of novel substituted-piperazine analogues” (2011)
Active and inactive are the calls of the source. The rule behind the calls is not given here.

Assays:
Platelet [1] = test: Antiaggregating activity in Homo sapiens (human) platelet rich plasma assessed as inhibition of collagen-induced platelet aggregation at 2 uM incubated for 4 min prior to collagen-induction measured for 5.5 min by turbidometric analysis; type: functional, cell-free
Platelet [2] = test: Antiaggregating activity in Homo sapiens (human) platelet rich plasma assessed as inhibition of ADP-induced platelet aggregation at 2 uM incubated for 4 min prior to ADP-induction measured for 5.5 min by turbidometric analysis; type: functional, cell-free
[3] = Antiaggregating activity in Homo sapiens (human) platelet rich plasma assessed as ristocetin-induced platelet aggregation at 2 uM incubated for 4 min prior to ristocetin-induction measured for 5.5 min by turbidometric analysis (reference value: 65 to 99%); type: functional
Platelet [4] = test: Antiaggregating activity in Homo sapiens (human) platelet rich plasma assessed as inhibition of adrenaline-induced platelet aggregation at 2 uM incubated for 4 min prior to adrenaline-induction measured for 5.5 min by turbidometric analysis; type: functional, cell-free
Platelet [5] = test: Antiaggregating activity in Homo sapiens (human) platelet rich plasma assessed as inhibition of arachidonic acid-induced platelet aggregation at 2 uM incubated for 4 min prior to arachidonic acid-induction measured for 5.5 min by turbidometric analysis; type: functional, cell-free
[6] = Antiaggregating activity in Homo sapiens (human) platelet rich plasma assessed as arachidonic acid-induced platelet aggregation at 1 uM incubated for 4 min prior to arachidonic acid-induction measured for 5.5 min by turbidometric analysis (reference value: 55 to 100%); type: functional
[7] = Antiaggregating activity in Homo sapiens (human) platelet rich plasma assessed as ristocetin-induced platelet aggregation at 1 uM incubated for 4 min prior to ristocetin-induction measured for 5.5 min by turbidometric analysis (reference value: 65 to 99%); type: functional
Platelet [8] = test: Antiaggregating activity in Homo sapiens (human) platelet rich plasma assessed as inhibition of adrenaline-induced platelet aggregation at 5 uM incubated for 4 min prior to adrenaline-induction measured for 5.5 min by turbidometric analysis; type: functional, cell-free
[9] = Antiaggregating activity in Homo sapiens (human) platelet rich plasma assessed as collagen-induced platelet aggregation at 0.5 uM incubated for 4 min prior to collagen-induction measured for 5.5 min by turbidometric analysis (reference value: 50 to 98%); type: functional
Platelet [10] = test: Antiaggregating activity in Homo sapiens (human) platelet rich plasma assessed as inhibition of collagen-induced platelet aggregation at 1 uM incubated for 4 min prior to collagen-induction measured for 5.5 min by turbidometric analysis; type: functional, cell-free
Platelet [11] = test: Antiaggregating activity in Homo sapiens (human) platelet rich plasma assessed as inhibition of collagen-induced platelet aggregation at 5 uM incubated for 4 min prior to collagen-induction measured for 5.5 min by turbidometric analysis; type: functional, cell-free
Platelet [12] = test: Antiaggregating activity in Homo sapiens (human) platelet rich plasma assessed as inhibition of ADP-induced platelet aggregation at 5 uM incubated for 4 min prior to ADP-induction measured for 5.5 min by turbidometric analysis; type: functional, cell-free
Platelet [13] = test: Antiaggregating activity in Homo sapiens (human) platelet rich plasma assessed as inhibition of adrenaline-induced platelet aggregation at 0.5 uM incubated for 4 min prior to adrenaline-induction measured for 5.5 min by turbidometric analysis; type: functional, cell-free
Platelet [14] = test: Antiaggregating activity in Homo sapiens (human) platelet rich plasma assessed as inhibition of arachidonic acid-induced platelet aggregation at 5 uM incubated for 4 min prior to arachidonic acid-induction measured for 5.5 min by turbidometric analysis; type: functional, cell-free
[15] = Antiaggregating activity in Homo sapiens (human) platelet rich plasma assessed as arachidonic acid-induced platelet aggregation at 0.5 uM incubated for 4 min prior to arachidonic acid-induction measured for 5.5 min by turbidometric analysis (reference value: 55 to 100%); type: functional
[16] = Antiaggregating activity in Homo sapiens (human) platelet rich plasma assessed as ADP-induced platelet aggregation at 0.5 uM incubated for 4 min prior to ADP-induction measured for 5.5 min by turbidometric analysis (reference value: 54 to 88%); type: functional
[17] = Antiaggregating activity in Homo sapiens (human) platelet rich plasma assessed as disaggregation of ADP-induced platelet aggregation at 1 uM incubated for 4 min prior to ADP-induction measured for 5.5 min by turbidometric analysis relative to control; type: functional
[18] = Antiaggregating activity in Homo sapiens (human) platelet rich plasma assessed as ristocetin-induced platelet aggregation at 0.5 uM incubated for 4 min prior to ristocetin-induction measured for 5.5 min by turbidometric analysis (reference value: 65 to 99%); type: functional
Platelet [19] = test: Antiaggregating activity in Homo sapiens (human) platelet rich plasma assessed as inhibition of adrenaline-induced platelet aggregation at 1 uM incubated for 4 min prior to adrenaline-induction measured for 5.5 min by turbidometric analysis; type: functional, cell-free
Platelet [20] = test: Antiaggregating activity in Homo sapiens (human) platelet rich plasma assessed as inhibition of ristocetin-induced platelet aggregation at 5 uM incubated for 4 min prior to ristocetin-induction measured for 5.5 min by turbidometric analysis; type: functional, cell-free
Platelet [21] = test: Antiaggregating activity in Homo sapiens (human) platelet rich plasma assessed as inhibition of arachidonic acid-induced platelet aggregation at 1 uM incubated for 4 min prior to arachidonic acid-induction measured for 5.5 min by turbidometric analysis; type: functional, cell-free
Platelet [22] = test: Antiaggregating activity in Homo sapiens (human) platelet rich plasma assessed as inhibition of ADP-induced platelet aggregation at 1 uM incubated for 4 min prior to ADP-induction measured for 5.5 min by turbidometric analysis; type: functional, cell-free
Platelet [23] = test: Antiaggregating activity in Homo sapiens (human) platelet rich plasma assessed as inhibition of ADP-induced platelet aggregation at 0.5 uM incubated for 4 min prior to ADP-induction measured for 5.5 min by turbidometric analysis; type: functional, cell-free
Platelet [24] = test: Antiaggregating activity in Homo sapiens (human) platelet rich plasma assessed as inhibition of arachidonic acid-induced platelet aggregation at 0.5 uM incubated for 4 min prior to arachidonic acid-induction measured for 5.5 min by turbidometric analysis; type: functional
Platelet [25] = test: Antiaggregating activity in Homo sapiens (human) platelet rich plasma assessed as inhibition of collagen-induced platelet aggregation at 0.25 uM incubated for 4 min prior to collagen-induction measured for 5.5 min by turbidometric analysis; type: functional
[26] = Antiaggregating activity in Homo sapiens (human) platelet rich plasma assessed as disaggregation of ADP-induced platelet aggregation at 0.25 uM incubated for 4 min prior to ADP-induction measured for 5.5 min by turbidometric analysis relative to control; type: functional
Platelet [27] = test: Antiaggregating activity in Homo sapiens (human) platelet rich plasma assessed as inhibition of adrenaline-induced platelet aggregation at 2.5 uM incubated for 4 min prior to adrenaline-induction measured for 5.5 min by turbidometric analysis; type: functional, cell-free
[28] = Antiaggregating activity in Homo sapiens (human) platelet rich plasma assessed as ristocetin-induced platelet aggregation at 0.25 uM incubated for 4 min prior to ristocetin-induction measured for 5.5 min by turbidometric analysis (reference value: 65 to 99%); type: functional
Platelet [29] = test: Antiaggregating activity in Homo sapiens (human) platelet rich plasma assessed as inhibition of adrenaline-induced platelet aggregation at 0.25 uM incubated for 4 min prior to adrenaline-induction measured for 5.5 min by turbidometric analysis; type: functional, cell-free
Platelet [30] = test: Antiaggregating activity in Homo sapiens (human) platelet rich plasma assessed as inhibition of collagen-induced platelet aggregation at 2.5 uM incubated for 4 min prior to collagen-induction measured for 5.5 min by turbidometric analysis; type: functional, cell-free
Platelet [31] = test: Antiaggregating activity in Homo sapiens (human) platelet rich plasma assessed as inhibition of ADP-induced platelet aggregation at 2.5 uM incubated for 4 min prior to ADP-induction measured for 5.5 min by turbidometric analysis; type: functional, cell-free
Platelet [32] = test: Antiaggregating activity in Homo sapiens (human) platelet rich plasma assessed as inhibition of arachidonic acid-induced platelet aggregation at 0.25 uM incubated for 4 min prior to arachidonic acid-induction measured for 5.5 min by turbidometric analysis; type: functional, cell-free
Platelet [33] = test: Antiaggregating activity in Homo sapiens (human) platelet rich plasma assessed as inhibition of arachidonic acid-induced platelet aggregation at 2.5 uM incubated for 4 min prior to arachidonic acid-induction measured for 5.5 min by turbidometric analysis; type: functional, cell-free
Platelet [34] = test: Antiaggregating activity in Homo sapiens (human) platelet rich plasma assessed as inhibition of collagen-induced platelet aggregation at 0.5 uM incubated for 4 min prior to collagen-induction measured for 5.5 min by turbidometric analysis; type: functional, cell-free
Platelet [35] = test: Antiaggregating activity in Homo sapiens (human) platelet rich plasma assessed as collagen-induced platelet aggregation at 0.25 uM incubated for 4 min prior to collagen-induction measured for 5.5 min by turbidometric analysis (reference value: 50 to 98%); type: functional
[36] = Antiaggregating activity in Homo sapiens (human) platelet rich plasma assessed as ristocetin-induced platelet aggregation at 0.1 uM incubated for 4 min prior to ristocetin-induction measured for 5.5 min by turbidometric analysis (reference value: 65 to 99%); type: functional
[37] = Antiaggregating activity in Homo sapiens (human) platelet rich plasma assessed as ADP-induced platelet aggregation at 0.1 uM incubated for 4 min prior to ADP-induction measured for 5.5 min by turbidometric analysis (reference value: 54 to 88%); type: functional
[38] = Antiaggregating activity in Homo sapiens (human) platelet rich plasma assessed as arachidonic acid-induced platelet aggregation at 0.1 uM incubated for 4 min prior to arachidonic acid-induction measured for 5.5 min by turbidometric analysis (reference value: 55 to 100%); type: functional
[39] = Antiaggregating activity in Homo sapiens (human) platelet rich plasma assessed as collagen-induced platelet aggregation at 0.1 uM incubated for 4 min prior to collagen-induction measured for 5.5 min by turbidometric analysis (reference value: 50 to 98%); type: functional
Platelet [40] = test: Antiaggregating activity in Homo sapiens (human) platelet rich plasma assessed as inhibition of adrenaline-induced platelet aggregation at 0.1 uM incubated for 4 min prior to adrenaline-induction measured for 5.5 min by turbidometric analysis; type: functional, cell-free
Platelet [41] = test: Antiaggregating activity in Homo sapiens (human) platelet rich plasma assessed as inhibition of ADP-induced platelet aggregation at 0.25 uM incubated for 4 min prior to ADP-induction measured for 5.5 min by turbidometric analysis; type: functional, cell-free

| Compound | inhibition (Platelet [1]) | inhibition (Platelet [2]) | Activity [3] [%] | inhibition (Platelet [4]) | inhibition (Platelet [5]) | Activity [7] [%] | inhibition (Platelet [8]) | Activity [9] [%] | inhibition (Platelet [10]) | inhibition (Platelet [11]) | inhibition (Platelet [12]) | inhibition (Platelet [13]) | inhibition (Platelet [14]) | Activity [18] [%] | inhibition (Platelet [19]) | inhibition (Platelet [20]) | inhibition (Platelet [21]) | inhibition (Platelet [22]) | inhibition (Platelet [23]) | inhibition (Platelet [24]) | also measured |
| --- | --- | --- | --- | --- | --- | --- | --- | --- | --- | --- | --- | --- | --- | --- | --- | --- | --- | --- | --- | --- | --- |
| Cl.Cl.O=C(C1CCCN(Cc2ccccc2)C1)N1CCN(C(=O)C2CCCN(Cc3ccccc3)C2)CC1 (stereo not given) | Active | Active | 9 | Active | Active |  |  |  |  |  |  |  |  |  |  |  |  |  |  |  |  |
| O=C(c1ccc[n+](Cc2ccccc2F)c1)N1CCN(c2ccccc2Cl)CC1.[Cl-] | Active | Active | 66 | Active | Active | 85 | Active | 90 | Active | Active | Active | Active | Active | 89 | Active | Active |  |  |  |  | Activity [6]: 80%; Activity [15]: 71%; Activity [16]: 71%; Activity [17]: 55% |
| Cl.Cl.O=C(C1CCCN(Cc2ccc(CN3CCCC(C(=O)N4CCN(c5ncccn5)CC4)C3)cc2)C1)N1CCN(c2ncccn2)CC1 (stereo not given) |  |  |  |  |  | 58 |  | 23 | Active |  |  | Active |  | 92 | Active |  | Active | Active | Active | Active |  |
| Cl.O=C(c1ccc(Br)cc1)N1CCCC(C(=O)N2CCN(c3ccccc3Cl)CC2)C1 (stereo not given) |  |  |  |  |  |  |  |  |  |  |  | Active |  | 75 |  |  |  |  | Active | Active | inhibition (Platelet [25]): Active; Activity [26]: 47%; inhibition (Platelet [27]): Active; Activity [28]: 81%; inhibition (Platelet [29]): Active; inhibition (Platelet [30]): Active; inhibition (Platelet [31]): Active; inhibition (Platelet [32]): Active; inhibition (Platelet [33]): Active; inhibition (Platelet [34]): Active; inhibition (Platelet [35]): Active |
| Cl.O=C(C1CCCN(Cc2ccccc2)C1)N1CCN(c2ccccc2Cl)CC1 (stereo not given) |  |  |  |  |  | 22 | Active |  | Active | Active | Active | Active | Active | 26 | Active | Active | Active | Active | Active | Active | inhibition (Platelet [25]): Active; Activity [28]: 30%; inhibition (Platelet [29]): Active; Activity [36]: 90%; Activity [37]: 86%; Activity [38]: 23%; Activity [39]: 100%; inhibition (Platelet [32]): Active; inhibition (Platelet [40]): Active; inhibition (Platelet [41]): Active; inhibition (Platelet [34]): Active |
| Cl.Cl.O=C(C1CCCN(Cc2ccccc2F)C1)N1CCN(C(=O)C2CCCN(Cc3ccccc3F)C2)CC1 (stereo not given) |  |  |  |  |  | 64 |  |  | Active |  |  |  |  |  | Active |  | Active | Active |  |  | inhibition (Platelet [27]): Active; inhibition (Platelet [30]): Active; inhibition (Platelet [31]): Active; inhibition (Platelet [33]): Active; inhibition (Platelet [35]): Active |
